According to patent US20100204328A1, “Solution and Method to Reduce, Treat and/or Prevent Oxidative Stress and Cell Activation” (priority 2006, published 2010):
Read-outs that look alike come from different tables or passages of the source.

How the values were obtained:
[1] = test system: isolated Leukocytes; assay: Design-of-experiments screening of antioxidants: intracellular free radical formation in PMA-stimulated isolated leukocytes (96-well plate, fluorescence kinetics); type: cell-based, human; details: model, other substances on a medium level, FIG. 9
Experimental: An often discussed therapeutic intervention is the addition of substances with antioxidative properties to balance the oxidative/antioxidative system. In our work we performed a systematic screening of such antioxidants, see FIG. 2. The screening was done in a 96-well-plate setup where isolated Leukocytes from healthy donors were pre-incubated with antioxidants for 1 hour. The chosen substances were N-acetyl-cysteine (NAC), gluconic acid (GA), glutathione (GSH) and vitamin […] fluorescence dye was added as a marker for intracellular free radical formation. Afterwards the cells were stimulated by phorbol-myristate-acetate (PMA) and free radical formation was recorded as fluorescence signal over time. The dye in this assay is membrane-permeable and non-fluorescent when it is added. Diffusing once into the cell, enzymes convert it to a readily oxidizable fluorescence dye and the intracellular formation of free radicals can be measured. In order to perform a systematic screening of these substances we would have had to carry out a lot of experiments. Due to the lack of blood donors we chose the methodology of design of experiments, see FIG. 3. Here an experimental plan is generated on statistical basis and a mathematical model can be established. In our case we chose a Centrum Composite Circumscribed-Design (CCC), which is a combination of a full-factorial and a Central Composite-Design (CCD) with a center point. Every single experiment was carried out three times. Besides saving many experiments an additional advantage is the consideration of interactions and quadratic influences. The software tool Mode generates the experimental plan where the combinations of the substances vary according to the chosen CCC-Design, see FIG. 4. Out of the measured fluorescence kinetics a free-radical-inhibition-ratio was calculated and implemented. A ratio of 1 relates to 100% inhibition of free radical formation. The obtained data was fitted by multiple linear regression analysis, see FIG. 5. The influence of single substances, its quadratic terms and interactions between the substances are considered in the shown equation. The quality of the model fit is defined in the summary plot. R^2 stands for regression, Q^2 for prediction quality, MV for model validity and Rep for reproducibility. […] The model has to be further optimised. To identify a model-weakness a closer look into the model is required.

[2] = test system: ROS; assay: ROS-inhibition with pre-incubation versus post-incubation (pre-stimulation) of cells; type: cell-based; details: single substances, FIGS. 31 to 34
Experimental: Therefore, the ROS-inhibition was tested in two different applications:
1. Pre-incubation (activation of cells after incubation with a substance or combination of substances according to the invention)
2. Post-incubation (addition of a substance or a combination of substances according to the invention after cell activation)
All substances or combinations thereof were tested in the same concentration ranges as in the screening of the combinations as described before.

[3] = test system: White blood cells (WBC); assay: Inhibition of cell activation/ROS-generation by addition of free radical scavengers (H2DCF-DA fluorescence); type: cell-based, human; details: WBC preincubated 30-60 minutes, PMA or LPS stimulus, FIG. 15
Experimental: Other macromolecules with SH sites could also be applied.
White blood cells (WBC) were isolated from freshly donated human whole blood. This was done by collecting whole blood from healthy donors on Heparin anticoagulation. Leukocytes were isolated out of the whole blood with the help of an isolation gradient (Polymorphprep). Isolated Leukocytes were diluted in PBS or RPMI 1640 cell culture media and a concentration of 2×10^6/ml was chosen. The cells were stored at 37° in 5% CO2. The cells were preincubated with the substances at 37° C. for 30-60 minutes. Afterwards the cells were stimulated with 50 ng/ml PMA or 30 EU/ml LPS. For ROS-measurement a fluorescence dye (dichlorodihydrofluorescein-diacetate, H2DCF-DA) was added at 10 μM final concentration. The cells were incubated with the substance, the fluorescence dye and the activator for 2 hrs and the fluorescence intensity kinetics was measured over time. To compare the result between two substances, the fluorescence intensity at a certain time point, e.g. 30 minutes) was recorded. For comparison the fluorescence at a certain time is shown in the diagram in FIG. 15.

[4] = test system: WBC; assay: Inhibition of cell activation/ROS-generation by free radical scavengers via the membrane; type: cell-based, human; details: low flux membrane, incubation 60 mins, PMA, FIG. 17
Experimental: WBC were isolated from human blood donation. Cells were separated by a membrane from the second compartment which comprises a buffer-system containing a radical scavenger (incubation time 60 mins). Afterwards a fluorescence dye (H2DCF-DA) was added to the cells and incubated for 25 mins. Finally stimulation of WBCs was performed by PMA and fluorescence was measured over time, see FIG. 17.
Positive control: with stimulus (2nd compartment PBS-buffer),
Negative control: without stimulus (2nd compartment PBS-buffer)

[5] = test system: CD11b; assay: CD11b expression of granulocytes in LPS-incubated whole blood by flow cytometry; type: cell-based; details: LPS 10/100 U/ml 45 minutes, then substance 4 hrs, FIG. 22
Experimental: Whole blood was incubated with LPS (10/100 U/ml) for 45 minutes. Ethyl pyruvate, N-acetyl-cysteine and gluconate were added to the stimulated system and incubated for 4 hrs. CD11b Expression of granulocytes was measured with flow cytometry, see FIG. 22.

[6] = test system: WBC; assay: Reduction of ROS during perfusion through hollow fiber minimodule; type: cell-based, human; details: scavenger added to dialysis fluid, counter current, single pass, FIG. 19
Experimental: WBC were isolated from human blood donation. Cells were stimulated by PMA and after one hour incubation a fluorescence dye (H2DCF-DA) was added to the cells and incubated for another 25 mins. The cell suspension was pumped single pass through a hollow fiber minimodule. On the dialysate pathway dialysis fluid with or without radical scavenger was pumped in counter current. Fluorescence was measured at the dialyzer inlet and outlet and fluorescence reduction in the filter was calculated. Negative control: PBS-buffer without radical scavenger as dialysis fluid, see FIG. 19.

[7] = FIG. 25; cited from earlier work
[8] = test system: Interleukin 6; assay: IL-6 expression in LPS-incubated whole blood by flow cytometry; type: cell-based; details: whole blood with LPS, substance added directly or after 2 hrs, measured after 4 hrs; for expression of IL6: FIG. 21
Description: Further we analyzed intracellular IL-6 concentrations—indicator of proinflammatory cell activation—by flow cytometry and by this we were also able to analyze the percentage of […]/activated cells, see FIG. 20. Shown are the results for intracellular IL-6. Further data were generated to show: • (1) That use of LPS as primary stimulus instead of PMA (i.e. other cell activation pathway) is inducing similar activation pattern. LPS could stand for a septic/bacterial infection environment instead of a pro-oxidative environment. • (2) That additional and more complete interventions in the pathophysiological sequence through scavengers reduces also the expression of cellular surface markers like CD11b (an indicator of enhanced adhesion to vascular walls).
Whole blood was incubated with LPS; ethyl pyruvate and N-acetyl-cysteine, respectively were added directly or after 2 hrs. Expression of Interleukin 6 was measured after 4 hrs with flow cytometer, see FIG. 21.

[9] = cited from earlier work

Compound | influence of the concentration of a single substance on the ROS-Inhibition ratio [1] | ROS inhibition [2] | free radical formation [3] | expression of CD11b adhesion marker [5] | free radicals on the blood side in the dialyzer and in the intracellular compartment [6] | number of IL-6 positive cells [8] | expression of IL6 [8] | also measured
O=C1O[C@H]([C@@H](O)CO)C(O)=C1O [vitamin C] | negative gradient with increasing concentration | 20-80% |  |  |  |  |  | 
O=C(O)[C@H](O)[C@@H](O)[C@H](O)[C@H](O)CO [gluconic acid] | quadratic character | 15-30% | able to inhibit free radical formation | reduce expression of CD11b adhesion marker |  |  |  | free radical formation, scavenger acting through the membrane [4]: capable to inhibit
CC(=O)N[C@@H](CS)C(=O)O [N-acetyl-cysteine] | quadratic character | 60-80% | able to inhibit free radical formation | reduce expression of CD11b adhesion marker | free radicals are reduced | reduce the number of IL-6 positive cells | reduce the expression of IL6 | plasma level at which first beneficial effects could be shown [7]: 12 µM; tolerability of rather high plasma levels ([9]; application as an antidote in acute situations): well tolerated; plasma levels ([9]; intravenous application, compared with oral): higher plasma levels; bioavailability ([9]; oral application): poor bioavailability; plasma levels ([9]; oral application): 3000 to 30000 nM
CC(=O)N[C@H]1C(O)O[C@H](CO)[C@@H](O)[C@@H]1O (stereo partly drawn) [N-acetyl-glucosamine] |  |  | able to inhibit free radical formation |  |  |  |  | 
N[C@@H](CCC(=O)N[C@@H](CS)C(=O)NCC(=O)O)C(=O)O [glutathione] | negative gradient with increasing concentration | 55-65% | able to inhibit free radical formation |  |  |  |  | 
CCOC(=O)C(C)=O [ethyl pyruvate] |  |  |  | reduce expression of CD11b adhesion marker | free radicals are reduced | reduce the number of IL-6 positive cells | reduce the expression of IL6 | 
